This note sets out measurements from patent US8884030B2, “Inhibitors of Flaviviridae viruses” (priority 2010, dated 2014).

The term inhibition denotes the drop in the measured response relative to a control, in per cent.

For this assay, the system named is human hepatoma Huh-7 cell line harboring a HCV replicon. Description: HCV replicon assay (inhibition of viral replication, luciferase). Format: cell-based. The following applies: Hepatitis C virus, 72 h; 2 μM; Huh-7 HCV replicon cells, 3 days incubation; inhibition of viral replication; read-out: % inhibition at 2 μM. The method, boiled down:
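Huh-7 replicon cells (1600/well) exposed 3 days at 37 °C to 10-point 3-fold dilutions, 0.44% DMSO. Replication measured by Dual-Glo luciferase, background from ITMN-191 wells; cytotoxicity by calcein AM. EC50/CC50 from Hill fit; % inhibition at fixed concentration derivable from fit.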
(In antiviral work, replicon cells carry a viral genome segment that copies itself.)
As for `CC1CCC(C(=O)N(c2cc(C#CC(C)(C)C)sc2C(=O)O)N(C)C2CCN(C)CC2)CC1` (stereo not drawn) [Compound 129, 5-(3,3-dimethyl-but-1-ynyl)-3-[N′-methyl-N-(4-methyl-cyclohexanecarbonyl)-N′-(1-methyl-piperidin-4-yl)-hydrazino]-thiophene-2-carboxylic acid], the inhibition at 2 µM was determined as 100%. For `CC(C)(C)C#Cc1cc(N(C(=O)[C@H]2CC[C@H](C)CC2)C2CCC(NC(=O)O[C@@H]3CCOC3)CC2)c(C(=O)O)s1` (stereo partly drawn) [Compound 48, 5-(3,3-dimethyl-but-1-ynyl)-3-{(4-trans-methyl-cyclohexanecarbonyl)-[4-(tetrahydro-furan-3-(R)-yloxycarbonylamino)-cyclohexyl]-amino}-thiophene-2-carboxylic acid], the inhibition at 2 µM is 100%. As to `CC(C)(C)C#Cc1cc(N(C(=O)[C@H]2CC[C@H](C)CC2)C2CCC(=NOCC(=O)O)CC2)c(C(=O)O)s1` (stereo partly drawn) [Compound 115, 3-(N-(4-(Carboxymethoxyimino)cyclohexyl)-4-methylcyclohexanecarboxamido)-5-(3,3-dimethylbut-1-ynyl)thiophene-2-carboxylic acid], the inhibition at 2 µM turned out to be 99.8%.

For the compound `CC1CCC(C(=O)N(c2cc(C#CC(C)(C)C)sc2C(=O)O)C2CCC(NN(C)c3ccccn3)CC2)CC1` (stereo not drawn) [Compound 79, 5-(3,3-Dimethyl-but-1-ynyl)-3-{(4-methyl-cyclohexanecarbonyl)-[4-(N′-methyl-N′-pyridin-2-yl-hydrazino)-cyclohexyl]-amino}-thiophene-2-carboxylic acid], the inhibition at 2 µM amounted to 100%.

With `CON=C1CCC(N(C(=O)C2CCC(C)CC2)c2cc(C#CC(C)(C)C)sc2C(=O)O)CC1` (stereo not drawn) [Compound 120, 5-(3,3-Dimethylbut-1-ynyl)-3-(N-(4-(methoxyimino)cyclohexyl)-4-methylcyclohexanecarboxamido)thiophene-2-carboxylic acid], the inhibition at 2 µM was determined as 99.9%. In the case of `CC1CCC(C(=O)N(c2cc(C#CC(C)(C)C)sc2C(=O)O)C2CCN(C(=O)c3cnccn3)CC2)CC1` (stereo not drawn) [Compound 141, 5-(3,3-dimethyl-but-1-ynyl)-3-{(4-methyl-cyclohexanecarbonyl)-[1′-(pyrazine-2-carbonyl)-piperidin-4-yl]-amino}-thiophene-2-carboxylic acid], the inhibition at 2 µM was 99.9%. The figure for `CC1CCC(C(=O)N(NCCOc2cccnc2)c2cc(C#CC(C)(C)C)sc2C(=O)O)CC1` (stereo not drawn) [Compound 133, 5-(3,3-dimethyl-but-1-ynyl)-3-{N-(4-methyl-cyclohexanecarbonyl)-N′-[2-(pyridin-3-yloxy)-ethyl]-hydrazino}-thiophene-2-carboxylic acid] is 96.7%; for `CC1CCC(C(=O)N(c2cc(C#CC(C)(C)C)sc2C(=O)O)N(C)CC2CCOCC2)CC1` (stereo not drawn) [Compound 131, 5-(3,3-dimethyl-but-1-ynyl)-3-[N′-methyl-N-(4-methyl-cyclohexanecarbonyl)-N′-(tetrahydro-pyran-4-ylmethyl)-hydrazino]-thiophene-2-carboxylic acid] it is 99.9%; for `CC1CCC(C(=O)N(c2cc(C#CC(C)(C)C)sc2C(=O)O)N(C)C2CCNCC2)CC1` (stereo not drawn) [Compound 128, 5-(3,3-dimethyl-but-1-ynyl)-3-[N′-methyl-N-(4-methyl-cyclohexanecarbonyl)-N′-piperidin-4-yl-hydrazino]-thiophene-2-carboxylic acid] it is 99.8%.
